According to US20260263567A1, “TUMOUR SENSITISATION TO CHECKPOINT INHIBITORS WITH REDOX STATUS MODIFIER” (CANCER RESEARCH TECHNOLOGY LIMITED, priority 2022, published 2026):
Where two headings read alike, the source gives them in different places.

Assays:
[1] = system: B78-D14 m.12,436^80% cells; experiment: Cell sensitivity to inhibitors (IC50 from final confluency, IncuCyte); format: cell-based, mouse; details: for IC50: Mus musculus
Method: (§1) Cells were plated in a 96-well plate at 500 cells/well in 200 μL of cell culture media. Plates were incubated overnight at 37° C. and 5% CO2. The following day, media was replaced with 0-100 mM 2-DG in quadruplicate. Plates were imaged once every 4 hrs on the IncuCyte Zoom (Essen Bioscience) for 5 days. Final confluency measurements were calculated using the system algorithm and the IC50 was determined by GraphPad Prism.

[2] = system: B78-D14 m.12,436^60% cells; experiment: as above; format: cell-based, mouse; details: for IC50: Mus musculus
Method: as §1

[3] = system: B78-D14 m.11,944^60% cells; experiment: as above; format: cell-based, mouse; details: for IC50: Mus musculus
Method: as §1

[4] = system: B78-D14 wild-type cells; experiment: as above; format: cell-based; details: Mus musculus
Method: as §1

[5] = system: metastatic melanoma; experiment: Response of metastatic melanoma patient cohort (Riaz et al.) to nivolumab, stratified by tumour mtDNA mutation status; format: in vivo, human
Description: Mutation calls and calculated heteroplasmy were used to assign patients to mtDNA wildtype, <50% VAF or >50% VAF groups.

[6] = system: metastatic melanoma; details: of the 15 responders; cited from earlier work
[7] = system: Hcmel12 tumours; experiment: Manipulation of tumour-associated neutrophils with G-CSF or anti-Ly6G, with or without anti-PD1, in Hcmel12 tumours; format: in vivo, mouse
Method: To determine if neutrophil depletions were necessary for observed sensitivity to ICB, the inventors chose to manipulate the proportion of tumour-associated neutrophils using G-CSF and anti-Ly6G treatments. Hcmel12 wild-type, m.12,436^83% and cytoLbNOX cells were allografted into C57BL/6 mice and were put on G-CSF or anti-Ly6G treatment with or without antiPD1 (FIG. 43A).
For immunotherapy experiments, mice were put on a dosing regimen of 200 μg of anti-PD1 given intraperitoneally twice a week. The first dose was given 7 days post-injection and all mice were sacrificed at 21 or 13 days post-injection for B78 or HcMel12 cells respectively. Either 5 μg mouse recombinant G-CSF (Stemcell) or 100 μg anti-mouse Ly6G—clone 1A8 (2B Scientific) was given intraperitoneally every 2 days post-engraftment to mice for neutrophil depletion experiments.

[8] = m.12,436^80% cells, read-out: IC50
[9] = m.12,436^60% cells, read-out: IC50
[10] = printed as mt.11944^80%, read-out: IC50
[11] = wild-type cells, read-out: IC50

Row | Molecule | IC50 [1, 8] | sensitivity compared with wild-type cells ([1]; m.12,436^80% cells) | IC50 [2, 9] | sensitivity compared with wild-type cells ([2]; m.12,436^60% cells) | IC50 [3, 10] | sensitivity compared with wild-type cells ([3]; m.11,944^60% cells) | IC50 [4, 11] | also measured
1 | CN(C)C(=N)N=C(N)N [metformin] | 5890 ± 710 µM | enhanced sensitivity | 16600 ± 2430 µM | enhanced sensitivity | 22900 ± 700 µM | enhanced sensitivity | 26300 ± 1490 µM | 
2 | C=C(C)[C@H]1Cc2c(ccc3c2O[C@@H]2COc4cc(OC)c(OC)cc4[C@@H]2C3=O)O1 [rotenone] |  | resistance compared to wild type |  | not differentially sensitive |  | not differentially sensitive |  | IC50 [1]: 0.493 ± 0.108 µM; IC50 [2]: 0.235 ± 0.035 µM; IC50 [3]: 0.205 ± 0.033 µM; IC50 [4]: 0.236 ± 0.026 µM
3 | nivolumab |  |  |  |  |  |  |  | tumours responding ([5]; <50% VAF tumours): 17%; tumours responding ([5]; >50% VAF tumours): 40%; likelihood to respond, >50% VAF tumours versus mtDNA wild-type or low VAF tumours ([5]; Example 1 analysis): 2.5 ×; rate of response of >50% VAF cancers versus wild-type or <50% VAF cancer ([5]; Example 2 analysis): 2.6 fold; cohort response rate, partial or complete responses ([5]; mtDNA mutation status-naive cohort, 70 patients): 22%; complete responders categorised as >50% VAF ([5]; out of the 3 complete responders): 2; complete responses [6]: 3; partial responses [6]: 12
4 | O=CC[C@@H](O)[C@H](O)[C@H](O)CO [2-DG, 2-deoxyglucose] | 460 µM | further enhanced | 810 µM | more sensitive |  | more sensitive | 1620 µM | IC50 ([3]; m.11,944^60% cells, read-out: IC50): 1040 µM
5 | CC[C@H]1/C=C/C=C/C[C@@H](C)[C@H](O)[C@@](C)(O)C(=O)[C@@H](C)[C@H](O)[C@@H](C)C(=O)[C@@H](C)[C@H](O)[C@@H](C)/C=C/C(=O)O[C@@H]2[C@H](C)[C@H](CC1)O[C@]1(CC[C@H](C)[C@H](C[C@@H](C)O)O1)[C@H]2C [oligomycin] |  | None of the mutants demonstrated differential sensitivity |  | None of the mutants demonstrated differential sensitivity | 13.5 ± 3.32 µM | None of the mutants demonstrated differential sensitivity | 13.8 ± 3.8 µM | IC50 ([1]; mt.12436^80% cells, read-out: IC50): 7.75 ± 0.56 µM; IC50 ([2]; mt.12436^60% cells, read-out: IC50): 13.5 ± 3.32 µM
6 | G-CSF: mouse recombinant G-CSF (Stemcell) (protein, UniProt P09920 31-208, looked up) Granulocyte …: VPLVTVSALPPSLPLPRSFLLKSLEQVRKIQASGSVLLEQLCATYKLCHPEELVLLGHSLGIPKASLSGCSSQALQQTQCLSQLHSGLCLYQGLLQALSGISPALAPTLDLLQLDVANFATTIWQQMENLGVAPTVQPTQSAMPAFTSAFQRRAGGVLAISYLQGFLETARLALHHLA |  |  |  |  |  |  |  | tumour-associated neutrophil proportions ([7]; across genotypes): increases; sensitivity of tumours to anti-PD1 ([7]; m.12,436^83% and cytoLbNOX tumours, G-CSF plus anti-PD1): abolished sensitivity; tumour weight versus untreated tumours at the same end-point ([7]; without anti-PD1): did not affect tumour weight
